Reference: US11382985B2, “Anti-tumour immune responses to modified self-epitopes” (Scancell Limited, priority 2015, dated 2022)
Square brackets hold non-standard residues; d marks the D form. Ends that are not written are not given here. Cit = NC(=O)NCCC[C@H](N)C(=O)O

Test system: splenocytes
Assay: Screening of citrullinated Enolase peptide pools, ex vivo IFNγ Elispot, DR4 mice
Format: in vivo, transgenic DR4 mouse
Settings: single immunisation with pool of 4-6 human citrullinated peptides, 20 μg each, CpG/MPLA, day 14, label = peptide used for restimulation
Experimental: C57BL/6 mice (Charles River, UK), HLA-DR4 mice (Taconic, USA), HHDII/DR1 mice (Pasteur institute, France) and the HHD/HLA-DP4 transgenic strain of mouse as described in patent WO2013/017545 A1 (EMMA repository, France) were used, aged between 8 and 12 weeks, and cared for by the staff at Nottingham Trent University. All work was carried out under a Home Office project licence. Peptides were dissolved in PBS to 1 mg/ml and then emulsified (a series of dilutions) with different adjuvants: CpG and MPLA 6 μg/mouse of each (Invivogen, UK), Incomplete Freund's 50 μl/mouse (Sigma, UK), poly I:C 10 μg/mouse (Invivogen, UK), Imiquimod 25 μg/mouse (Invivogen, UK) and GMCSF 10 μg/mouse (Peprotech, UK). […]
Elispot assays were performed using murine IFNγ, IL-17 and IL-10 capture and detection reagents according to the manufacturer's instructions (Mabtech, Sweden). […] After incubation, captured IFN and IL-10 were detected by biotinylated anti-IFNγ and IL-10 antibodies and developed with a streptavidin alkaline phosphatase and chromogenic substrate. Spots were analysed and counted using an automated plate reader (Cellular Technologies Ltd).
Screening was performed to identify potential citrullinated Enolase epitopes in mice. […] After 14 days the mice were culled and the immune responses to each peptide within the immunising pool were assessed by ex vivo Elispot (FIG. 2). […]

VIGMDVAASEFF-CIT-SGKYDLD (VIGMDVAASEFF[Cit]SGKYDLD; listed as Homo sapiens) [Enolase 241cit]
IFNγ response to peptide compared to media: significant response
